Results taken from patent US5714491A, “Peptidyl derivatives as metalloproteinase inhibitors” (Celltech Therapeutics Limited, priority 1993, dated 1998).

Experiments:
[1] = target: T1, Gelatinase-72KD (Homo sapiens, UniProt P08253); test: Enzyme inhibition assay with fluorogenic peptide substrate, gelatinase-72KD; assay type: biochemical; conditions: true Ki from plot of Ki (app) vs. [S]
T1 sequence (P08253 110-660): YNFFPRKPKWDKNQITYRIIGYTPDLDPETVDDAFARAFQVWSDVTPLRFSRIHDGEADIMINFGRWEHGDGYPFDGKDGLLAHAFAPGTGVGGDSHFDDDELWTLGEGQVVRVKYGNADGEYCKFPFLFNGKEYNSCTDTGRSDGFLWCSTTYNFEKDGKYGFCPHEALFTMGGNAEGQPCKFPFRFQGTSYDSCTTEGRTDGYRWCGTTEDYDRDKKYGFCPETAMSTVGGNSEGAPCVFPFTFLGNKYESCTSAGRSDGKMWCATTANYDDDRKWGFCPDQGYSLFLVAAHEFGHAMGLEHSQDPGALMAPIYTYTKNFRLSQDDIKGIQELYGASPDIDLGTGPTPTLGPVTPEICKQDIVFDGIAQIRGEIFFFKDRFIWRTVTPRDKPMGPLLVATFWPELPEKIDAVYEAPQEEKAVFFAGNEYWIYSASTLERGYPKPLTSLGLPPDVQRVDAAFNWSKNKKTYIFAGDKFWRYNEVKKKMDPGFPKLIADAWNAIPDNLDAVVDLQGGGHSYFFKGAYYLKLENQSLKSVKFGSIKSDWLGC
Description: (§1) All enzyme assays to determine Ki values were performed using the peptide substrate Dnp-Pro-Leu-Gly-Leu-Trp-Ala-D-Arg-NH2. [M. Sharon Stock and Robert D. Gray, JBC 264, 4277-81, 1989]. The enzymes cleave at the Gly-Leu bond which can be followed fluorimetrically by measuring the increase in Trp fluorescence emission associated with the removal of the quenching dinitrophenol (Dnp) group.
(§2) Essentially, enzyme (e.g. gelatinase, stromelysin, collagenase) at 0.08-2 nM; a range of inhibitor concentrations (0.1-50×Ki) and substrate (approx. 20 μm) are incubated overnight in 0.1M Tris/HCI buffer, pH 7.5, containing 0.1M NaCl, 10 mM CaCl2 and 0.05%. Brij 35 at either room temperature or 37° C. depending on the enzyme. The reaction is stopped by adjusting the pH to 4 using 0.1M sodium acetate buffer and the fluorescence read at an excitation wavelength of 280 nm and emission wavelength of 346 nm.
(§3) Ki values can be established using the equation for tight-binding inhibition: [formula] where VO is the initial rate of reaction in the absence of inhibitor, Vi is the initial rate in the presence of inhibitor, [E] is the total enzyme concentration and [I] the total inhibitor concentration in the reaction mixture.
(§4) For stromelysin and collagenasa, Ki (app) was assumed to approximate to the true Ki as [S]<<Km for the substrate hydrolysis. For gelatinase the Ki was determined by performing the analyses at several substrate concentrations. A plot of Ki (app) vs. [S] then gave the true Ki as the value of the y-axis intercept.

[2] = target: Collagenase; test: Enzyme inhibition assay with fluorogenic peptide substrate, collagenase; assay type: biochemical; conditions: Ki (app) assumed to approximate true Ki
Description: as §1, §2, §3, §4

[3] = target: Stromelysin-1 (Homo sapiens, UniProt P08254); test: Enzyme inhibition assay with fluorogenic peptide substrate, stromelysin-1; assay type: biochemical; conditions: Ki (app) assumed to approximate true Ki
Description: as §1, §2, §3, §4

[4] = target: T2, gelatinase A (72K form) (Homo sapiens, UniProt P08253); test: Mouse pleural cavity assay (oral activity); assay type: in vivo; conditions: administered orally, around 25 μm/Kg
T2 sequence (P08253 110-660): T1 sequence (P08253 110-660)
Description: The oral activity of the compounds according to the invention may be determined using the mouse pleural cavity assay described below. This assay measures the ability of compounds of the invention when adminstered orally to inhibit a subsequent inoculation of gelatinase into the mouse pleural cavity.
A 2 ml solution of the test compound (for example around 25 μm/Kg) in an appropriate solvent (e.g. 50% polyethylene glycol (PG)) plus a variable proportion of dimethyl sulphoxide (DMSO) (if required) is administered orally. After an interval of up to 24 hrs, 0.4 ml of a mixture of an equal volume (2.2 ml) of the enzyme gelatinase A (72K form at a concentration of 20 nM) and radiolabelled [^14 C]-gelatin (at an approximate concentration of 10 μM i.e. 500 times molar excess) is injected into the pleural cavity and maintained at […]. […] The resulting TCA precipitate is then separated by centrifugation and radioactivity in each supernatant measured by scintillation counting. Results are expressed as a % inhibition of enzyme activity calculated by comparing the radioactivity measured for each test compound with a control value obtained by performing the same assay in the absence of a gelatinase inhibitor. […]

Stromelysin-1, sequence (P08254 100-477, species assumed): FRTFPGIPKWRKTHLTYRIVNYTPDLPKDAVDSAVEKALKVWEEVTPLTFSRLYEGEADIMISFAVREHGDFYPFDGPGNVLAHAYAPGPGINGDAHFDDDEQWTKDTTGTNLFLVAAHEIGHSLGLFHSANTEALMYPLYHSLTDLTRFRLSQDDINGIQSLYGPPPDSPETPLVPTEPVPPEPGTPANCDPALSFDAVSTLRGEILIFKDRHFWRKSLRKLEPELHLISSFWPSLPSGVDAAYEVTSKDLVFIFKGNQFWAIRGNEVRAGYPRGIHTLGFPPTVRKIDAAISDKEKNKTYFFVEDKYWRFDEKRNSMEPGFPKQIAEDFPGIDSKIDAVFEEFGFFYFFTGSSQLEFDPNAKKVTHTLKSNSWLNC

Structure (SMILES)	Ki [1] [nM]	Ki [2] [nM]	Ki [3] [nM]	% inhibition of enzyme activity [4] [%]
CNC(=O)[C@H](NC(=O)[C@H](CCCc1ccc(Cl)cc1)CC(=O)NO)C(C)(C)SC [Example 3a), [4-(N-Hydroxyamino)-2(R)-[3-(4-chlorophenyl)propyl]succinyl]-L-[S-(methyl)penicillamine]-N-methylamide]	0.005	26.3	5.3	
CC(C)(S)[C@@H](NC(=O)[C@H](CCCc1ccc(Cl)cc1)CC(=O)NO)C(N)=O [Example 3b), [4-(N-Hydroxyamino)-2(R)-[3-(4-chlorophenyl)propyl]-1-succinyl]-L-penicillamine amide]	0.027	122	3.6	100
CNC(=O)[C@H](NC(=O)[C@H](CCCc1ccc(Cl)cc1)CC(=O)NO)C(C)(C)S(C)(=O)=O [Example 4, {4-(N-Hydroxyamino)-2(R)-[3-(4-chlorophenyl)propyl]succinyl}-L-[S-(methyl)penicillaminesulphone]-N-methylamide]	0.005	20.7	5.92	
